In article PMC7377239, “Cardiovascular Effects of Polychlorinated Biphenyls and Their Major Metabolites” (Environmental Health Perspectives, 2020):
Structures can show the parent of a compound that is named as a salt. Where two headings read alike, the source gives them in different places.

What was measured:
HUVECs = test: High-content imaging cytotoxicity in HUVECs, 24 h; assay type: cell-based, human; settings: Homo sapiens, HUVEC, 24 h, HUVEC, 24 hr
Outline: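 Point-of-departure values come from four-parameter logistic fits of vehicle-normalized (0.5% DMSO) imaging readouts, cutoff one SD of vehicle means, 100μM where no concentration–response. Cells: HUVEC monolayers, passages 1–5, treated 24 h at 37°C, 5% CO2, then Hoechst 33342/MitoTracker Orange/calcein AM stained, imaged at 10×.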

[1] = test system: iCell cardiomyocytes (human iPSC-derived cardiomyocytes); test: High-content imaging of cytotoxicity and mitochondrial integrity in iPSC-CMs; assay type: cell-based; settings: Homo sapiens, Cardiomyocyte, cardiomyocytes (cm)
Outline: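 This assay measured cytotoxicity and mitochondrial integrity in iPSC cardiomyocytes held in 40μL maintenance medium. After compound exposure, a 2× staining solution with Hoechst 33342 (4μg/mL) and MitoTracker™ Orange (0.4μM) was applied for 15 min at 37°C. Cells were washed, fixed with 3.7% formaldehyde, imaged on DAPI and Cy3 channels, and scored in MetaXpress®.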

[2] = cyto, read-out: POD huvec.cyto.24hr
[3] = mito, read-out: POD huvec.mito.24hr
[4] = mitoint, read-out: POD huvec.mitoint.24hr
[5] = nma, read-out: POD huvec.nma.24hr
[6] = tc, read-out: POD huvec.tc.24hr
[7] = 1.5 h, cam, 90 min, read-out: POD cm.cam.90min
[8] = 1.5 h, mii, 90 min, read-out: POD cm.mii.90min
[9] = 1.5 h, mito, 90 min, read-out: POD cm.mito.90min
[10] = 1.5 h, tc, 90 min, read-out: POD cm.tc.90min
[11] = 24 h, cam, 24 hrs, read-out: POD cm.cam.24hrs
[12] = 24 h, mii, 24 hrs, read-out: POD cm.mii.24hrs
[13] = 24 h, mito, 24 hrs, read-out: POD cm.mito.24hrs
[14] = 24 h, tc, 24 hrs, read-out: POD cm.tc.24hrs

`O=S(=O)(O)Oc1cccc(-c2ccc(Cl)cc2)c1` [3'-PCB 3 sulfate] gave a minimal effective concentration (HUVECs; [2]) of 100 µM, a minimal effective concentration (HUVECs; [3]) of 100 µM and a minimal effective concentration (HUVECs; [4]) of 100 µM. The minimal effective concentration (HUVECs; [5]) was 100 µM, the minimal effective concentration (HUVECs; [6]) was 100 µM and the minimal effective concentration [1, 7] was 100 µM. It also gave a minimal effective concentration [1, 8] of 89.9 µM, a minimal effective concentration [1, 9] of 100 µM and a minimal effective concentration [1, 10] of 100 µM. The minimal effective concentration [1, 11] was 100 µM, the minimal effective concentration [1, 12] was 100 µM and the minimal effective concentration [1, 13] was 100 µM. The minimal effective concentration [1, 14] was 100 µM.
For `Oc1cccc(-c2ccc(Cl)cc2)c1` [3'-OH-PCB 3], the minimal effective concentration (HUVECs; [2]) was 1.1 µM, the minimal effective concentration (HUVECs; [3]) was 0.97 µM and the minimal effective concentration (HUVECs; [4]) was 41.4 µM. The minimal effective concentration (HUVECs; [5]) was 0.04 µM, the minimal effective concentration (HUVECs; [6]) was 1.1 µM and the minimal effective concentration [1, 7] was 16 µM. For the same molecule, the minimal effective concentration [1, 8] was 35 µM, the minimal effective concentration [1, 9] was 15 µM and the minimal effective concentration [1, 10] was 14.8 µM. For the same molecule, the minimal effective concentration [1, 11] was 14.1 µM, the minimal effective concentration [1, 12] was 23 µM and the minimal effective concentration [1, 13] was 14 µM. For the same molecule, the minimal effective concentration [1, 14] was 15.6 µM.
